Laboratory results published in PubChem BioAssay (NCI).
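How tested: cells in 96-well plates exposed to compound for 48 hours at five concentrations. The concentration for 50% growth inhibition is given as GI50. TGI is the concentration that stops growth completely.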

How the values were obtained:
Experiment in all cases: inhibition of tumour cell growth, NCI panel, 48 h
NCI-H23 lung = system: NCI-H23 lung
SNB-19 CNS = system: SNB-19 CNS
CAKI-1 renal = system: CAKI-1 renal
MOLT-4 leukemia = system: MOLT-4 leukemia
SF-295 CNS = system: SF-295 CNS
ACHN renal = system: ACHN renal
SW-620 colon = system: SW-620 colon
UO-31 renal = system: UO-31 renal
RXF 393 renal = system: RXF 393 renal
PC-3 prostate = system: PC-3 prostate

| SMILES | TGI (NCI-H23 lung) [µM] | TGI (SNB-19 CNS) [µM] | TGI (CAKI-1 renal) [µM] | TGI (MOLT-4 leukemia) [µM] | TGI (SF-295 CNS) [µM] | TGI (ACHN renal) [µM] | TGI (SW-620 colon) [µM] | TGI (UO-31 renal) [µM] | TGI (RXF 393 renal) [µM] | GI50 (SNB-19 CNS) [µM] | GI50 (CAKI-1 renal) [µM] | GI50 (MOLT-4 leukemia) [µM] | GI50 (SF-295 CNS) [µM] | GI50 (ACHN renal) [µM] | GI50 (SW-620 colon) [µM] | GI50 (UO-31 renal) [µM] | GI50 (RXF 393 renal) [µM] | GI50 (NCI-H23 lung) [µM] | TGI (PC-3 prostate) [µM] | GI50 (PC-3 prostate) [µM] |
| --- | --- | --- | --- | --- | --- | --- | --- | --- | --- | --- | --- | --- | --- | --- | --- | --- | --- | --- | --- | --- |
| Cn1c2ccccc2n2c(=O)c3c(c(C#N)c12)CCCC3 | > 100 | > 100 | > 100 | > 100 | > 100 | > 100 | > 100 | > 100 | > 100 | – | – | – | – | – | – | – | – | – | – | – |
| CC(C)c1c2[nH]c3ccccc3c2c(C(C)C)c2[nH]c3ccccc3c12 | > 100 | > 100 | > 100 | > 100 | > 100 | > 100 | > 100 | > 100 | > 100 | – | – | – | – | – | – | – | – | – | – | – |
| Cc1ccc(S(=O)OC2C3CC4CC(C3)CC2C4)cc1 (stereo not drawn) | > 100 | > 100 | > 100 | > 100 | > 100 | > 100 | > 100 | > 100 | > 100 | – | – | – | – | – | – | – | – | – | – | – |
| O=P1(Oc2ccccc2)C(c2ccccc2)C(c2ccccc2)=NN1c1ccccc1 (stereo not drawn) | 51.9 | > 100 | 65 | 57 | 89.5 | 77.6 | 53.1 | – | 40.7 | – | – | – | – | – | – | – | – | – | – | – |
| O=C([CH-]C(=O)c1ccccc1)c1ccccc1.O=C([CH-]C(=O)c1ccccc1)c1ccccc1.[OH-].[OH-].[Ti+4] | – | > 100 | > 100 | > 100 | > 100 | > 100 | > 100 | > 100 | 25.9 | 39.9 | 85.3 | 54.7 | 30.4 | > 100 | 49 | 59.3 | 6.85 | – | – | – |
| N#Cc1ccc(N=Cc2c([O-])ccc3ccccc23)cc1.[C-]#[O+].[C-]#[O+].[Ir] | 24.4 | 33.2 | 6.26 | 19.3 | 35.7 | 18.7 | 4.09 | 26.1 | – | 18.4 | 2.92 | 4.16 | 16.9 | 6.32 | 1.93 | 13.2 | – | 10.5 | – | – |
| COC(CN1C=C(Sc2ccccc2)CC1)OC | 69.7 | > 100 | > 100 | 80.3 | 71 | > 100 | 47.9 | > 100 | 66.6 | – | – | – | – | – | – | – | – | – | – | – |
| COc1ccc2c(c1OC)C(=O)OC2C1c2c(c([N+](=O)[O-])c3c(c2OC)OCO3)CCN1C (stereo not drawn) | > 100 | > 100 | > 100 | – | > 100 | > 100 | > 100 | > 100 | > 100 | > 100 | > 100 | – | > 100 | > 100 | > 100 | > 100 | > 100 | > 100 | – | – |
| Cc1ccc(C2=Nc3ccccc3SC(c3cccc([N+](=O)[O-])c3)C2)cc1 (stereo not drawn) | > 100 | > 100 | > 100 | – | > 100 | > 100 | > 100 | 23 | 72.2 | – | – | – | – | – | – | – | – | – | > 100 | – |
| Cn1cncc1CC1COC(=O)C1C(O)c1ccccc1 (stereo not drawn) | > 100 | > 100 | > 100 | > 100 | > 100 | > 100 | > 100 | – | > 100 | – | – | – | – | – | – | – | – | – | > 100 | – |
| COCCOCOc1ccc(OCOCCOC)c2c1C(=O)c1ccccc1C2=O | > 100 | > 100 | > 93 | > 100 | > 100 | > 100 | > 100 | > 100 | > 100 | – | – | – | – | – | – | – | – | – | – | – |
| Cc1cc2c(c(C(=O)O)c1C)-c1cccc(F)c1C2=O | > 100 | > 100 | > 100 | > 100 | > 100 | > 100 | > 100 | 66.1 | > 100 | – | – | – | – | – | – | – | – | – | – | – |
| [N-]=[N+]=C1C(=O)C2CC3CC(C2)CC1C3 | > 100 | > 100 | > 100 | > 100 | > 100 | > 100 | > 100 | > 100 | > 100 | – | – | – | – | – | – | – | – | – | – | – |
| O=[N+]([O-])c1cc(S(=O)(=O)Oc2ccccc2)ccc1Cl | 37.9 | 11.1 | 2.89 | 45.1 | – | 9.05 | 3.59 | 3.17 | 17.7 | 3.11 | 1.53 | 2.17 | – | 3.22 | 1.56 | 1.75 | 5.57 | 16.5 | 4.45 | 2.05 |
| CN1CCN(CC(O)COc2c(Br)c(Br)c(Br)c3c2OC(C)(C)C3)CC1 (stereo not drawn) | 34.1 | 42.9 | 38.1 | – | 3.77 | 24.7 | 8.81 | 31 | 6.53 | 12.7 | 14.5 | – | 1.79 | 11.3 | 3.16 | 9.24 | 3.3 | 14 | 21.1 | 5.06 |
| O=C(NC1CCCC1=O)c1ccccc1 (stereo not drawn) | > 100 | > 100 | > 100 | > 100 | > 100 | > 100 | > 100 | > 100 | > 100 | – | – | – | – | – | – | – | – | – | – | – |
| CCO/C=C1\N=C(c2ccccc2Br)OC1=O | > 100 | > 100 | > 100 | > 100 | > 100 | > 100 | > 100 | > 100 | > 100 | – | – | – | – | – | – | – | – | – | – | – |
| COC1O[C@@H]2C[C@H]3C(C)(C)CCC[C@]3(C)C3=CCCC1[C@@]32C (stereo partly drawn) | > 100 | > 100 | – | > 100 | > 100 | > 100 | > 100 | > 100 | > 100 | > 100 | – | > 100 | > 100 | > 100 | > 100 | > 100 | > 100 | > 100 | > 100 | 0.515 |
| COc1cc2nc(NCCCCCNC(=O)c3ccco3)nc(N)c2cc1OC | > 100 | > 100 | > 100 | 67.8 | > 100 | > 100 | 58.1 | > 100 | 83.5 | – | – | – | – | – | – | – | – | – | – | – |
